In patent US12006330B2, “Substituted macrocyclic compounds and related methods of treatment” (Alkermes, Inc., priority 2020, dated 2024):

Key:
Sprague-Dawley rats = test: Assessment of wake promotion in Sprague-Dawley rats (EEG/EMG); format: in vivo, rat; conditions: male Sprague-Dawley rats, 3 mpk, dosed at ZT5, 6-hour post-dose period
Procedure: Wake promotion was assessed using electroencephalography (EEG) and electromyography (EMG) in adult male Sprague-Dawley rats. All rats (Charles River Laboratories, Raleigh, NC, USA) were intraperitoneally implanted with telemetry devices (F50-EEE, Data Sciences International Inc., MN, USA) under isoflurane anesthesia. For EEG, stainless steel screws were implanted over frontal cortex and parietal cortex, and reference screws were placed over cerebellum. Additionally, an electrode was placed in neck muscle for EMG. Rats were given carprofen post-surgery and underwent a 7 to 10-day recovery period. Rats habituated to the experimental room for 7 days and were maintained on a 12-hour light-dark cycle.
EEG and EMG data were recorded using the DSI telemetry system and Ponemah software (Data Sciences International Inc., MN, USA). Sleep-wake stages were scored both manually and with Somnivore, a supervised machine learning software platform, in 10 second epochs. Records were visually inspected as needed post-processing.
All test compounds were dissolved in 5% DMSO and suspended in 95% saline with 0.5% methylcellulose and 0.5% tween. […] Unless otherwise indicated, all compounds were dosed orally. Recordings for each rat were initiated immediately after dosing and lasted for 6 hours post-dose.
Two key endpoints include wakefulness time and cortical activation time. Wakefulness time is derived from the sleep-wake stage analysis. Cortical activation time is based on the duration in which frontal gamma oscillatory activity (30-100 Hz), a key feature of wakefulness, was elevated relative to a pre-treatment baseline. Mean cortical activation time was computed relative to vehicle treatment for the 6-hour post-dose period.

MDCK-MDR1 cells = test: MDCK-MDR1 permeability assay; format: in vitro ADME; conditions: MDCK-MDR1 cells; test compound 3 μM; 2 hours at 37 degrees C; apical to basolateral
In short: (§1)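 Test compound at 3 μM in HBSS was dosed apical-to-basolateral (with 100 μM Lucifer Yellow) and basolateral-to-apical across MDCK-MDR1 monolayers at 37 °C for 2 h. Receiver and donor samples were quantified by LC-MS/MS. Papp = dQ/dt×1/A×C0, efflux ratio = Papp(B→A)/Papp(A→B), and percent recovery was also derived.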

MDR1 = test: MDCK-MDR1 permeability assay; format: in vitro ADME; conditions: dog, MDCK-MDR1, MDCK-MDR1 cells; for efflux ratio at 2 h, 3 μM: Papp B→A divided by Papp A→B, read-out: Efflux ratio (ER); for Papp A→B at 2 h, 3 μM: test compound 3 μM, 2 hours at 37 degrees C, apical to basolateral
In short: as §1

| Papp A → B (10^−6 cm/s) (MDCK-MDR1 cells) | efflux ratio at 2 h, 3 μM (MDR1) | Papp A→B at 2 h, 3 μM (MDR1) | Compound | Mean cortical activation time (% vehicle treatment) (Sprague-Dawley rats; PO) | Mean cortical activation time (% vehicle treatment) (Sprague-Dawley rats; SC) |
| --- | --- | --- | --- | --- | --- |
| 0.33 10^−6 cm/s | 48 | – | Cc1ncnc2c1[C@H]1CC[C@H](CC1)OCC1[C@@H](NS(C)(=O)=O)CCCN1C(=O)CO2 (stereo in doubt) [Compound 27] | 138.57 % vehicle treatment | – |
| – | 47 | 0.96 ×10⁻⁶ cm/s | O=C1COc2ncccc2[C@H]2CC[C@H](CC2)OCC2[C@@H](NS(=O)(=O)C(F)(F)F)CCCN12 (stereo in doubt) [Compound 91] | 151.55 % vehicle treatment | – |
| – | 4.7 | 8.7 ×10⁻⁶ cm/s | Cc1ccnc2c1[C@H]1CC[C@H](CC1)OCC1[C@@H](NS(=O)(=O)C(F)(F)F)CCN1C(=O)CO2 (stereo in doubt) [Compound 94] | 152.81 % vehicle treatment | – |
| – | 15 | 2 ×10⁻⁶ cm/s | O=C1COc2cccc(F)c2[C@H]2CC[C@H](CC2)OCC2[C@@H](NS(=O)(=O)C(F)(F)F)CCCN12 (stereo in doubt) [Compound 95] | 312.26 % vehicle treatment | – |
| – | 57 | 0.52 ×10⁻⁶ cm/s | O=C1COc2nccnc2[C@H]2CC[C@H](CC2)OCC2[C@@H](NS(=O)(=O)C(F)(F)F)CCCN12 (stereo in doubt) [Compound 98] | 84.91 % vehicle treatment | – |
| – | 52 | 0.46 ×10⁻⁶ cm/s | Cc1ncnc2c1[C@H]1CC[C@H](CC1)OCC1[C@@H](NS(=O)(=O)C(F)(F)F)CCCN1C(=O)CO2 (stereo in doubt) [Compound 99] | 97.17 % vehicle treatment | – |
| – | 1.3 | 12 ×10⁻⁶ cm/s | O=C1COc2ccccc2[C@H]2CC[C@H](CC2)OCC2[C@@H](NS(=O)(=O)C(F)(F)F)CCN12 (stereo in doubt) [Compound 100] | 265.17 % vehicle treatment | – |
| – | 6.4 | 6.8 ×10⁻⁶ cm/s | Cc1cccc2c1[C@H]1CC[C@H](CC1)OC[C@H]1[C@@H](NS(C)(=O)=O)CCN1C(=O)CO2 [Compound 20] | 154.26 % vehicle treatment | – |
| – | 2.5 | 6.4 ×10⁻⁶ cm/s | CC(C)S(=O)(=O)N[C@H]1CCN2C(=O)COc3c(F)cc(F)cc3[C@H]3CC[C@H](CC3)OC[C@@H]12 [Compound 29] | 214.61 % vehicle treatment | – |
| – | 5.9 | 5 ×10⁻⁶ cm/s | COC(=O)N1CCC[C@H](NS(C)(=O)=O)[C@@H]1CO[C@H]1CC[C@@H](c2ccccc2)CC1 [Reference Compound A, methyl (2R,3S)-3-((methylsulfonyl)amino)-2-(((cis-4-phenylcyclohexyl)oxy)methyl)-piperidine-l-carboxylate, reference compound] | – | 118.75 % vehicle treatment |
| – | > 100 | 0.21 ×10⁻⁶ cm/s | CC(C)(O)C(=O)N1CC[C@H](NS(C)(=O)=O)[C@@H]1Cc1cccc(-c2cc(F)cc(F)c2)c1F [Reference Compound B, N-((2S,3S)-1-(2-hydroxy-2-methylpropanoy1)-2-((2,3′,5′-trifluorobipheny1-3-yl)methyl)pyrrolidin-3-yl)methanesulfonamide, reference compound] | 110.4 % vehicle treatment | – |
